# Measurements as given in US12029712B2 (Sun Pharmaceutical Industries, Inc., priority 2017, dated 2024).
# Experiments:
# rats = assay: Nephrotoxicity comparison at doses from 150 mg/kg to 750 mg/kg (dose escalation); assay type: in vivo; conditions: for BUN / creatinine: doses from 150 mg/kg to 750 mg/kg, PO
# Male Sprague-Dawley Rats [1] = assay: Nephrotoxicity dose response of non-deuterated D-serine, 30 to 300 mg/kg PO; assay type: in vivo; conditions: 24 hr samples, 150 and 300 mg/kg doses, versus control and reference values
# From the text: The pharmacokinetic profile of non-deuterated D-serine was investigated in male Sprague-Dawley rats. […] Plasma was collected and analyzed for the non-deuterated D-serine. Additional blood was collected and analyzed for the full clinical chemistry profile.
# Male Sprague-Dawley Rats [2] = assay: Nephrotoxicity of Compound 100 and non-deuterated D-serine, 150 mg/kg PO (BUN, creatinine, GGT); assay type: in vivo
# From the text: (§1) The pharmacokinetic profile of Compound 100 was investigated in male Sprague-Dawley rats compared with that of non-deuterated D-serine. […] Plasma was collected and analyzed for Compound 100 and non-deuterated D-Serine. Additional blood was collected and analyzed for the full clinical chemistry profile.
# [3] = target: T1, human NMDAR subunits GluN1 and GluN2A (Homo sapiens, UniProt Q05586); assay: NMDA receptor activation in automated patch clamp system (ScreenPatch); assay type: cell-based; conditions: HEK293 cells, 0.003 to 10 μM
# T1 construct: expressed in transfected cells; host or cells: HEK293
# Experimental: Peak current and steady state current were measured. The activity at the NMDA receptor was indistinguishable for the two compounds.
# [4] = Pharmacokinetic profile of Compound 100 versus non-deuterated D-serine, 150 mg/kg PO; assay type: in vivo, male Sprague-Dawley rats
# From the text: as §1
# [5] = Pharmacokinetics of deuterated and non-deuterated D-serine, PO 10 mg/kg; assay type: in vivo, male Sprague Dawley rats
# Experimental: Three rats were used for each group. Blood was collected at the following time points: for IV dosing: pre-dose, 0.05, 0.167, 0.5, 1, 2, 4, 6, 8 and 12 hours post-dose; for PO dosing: pre-dose, 0.25, 0.5, 1, 2, 4, 6, 8 and 12 hours post-dose PO. Urine was collected at pre-dose (minimum 12 hours), 0-6, 6-12 and 12-24 hours. Plasma samples were analyzed and quantified for dosed compound LC-MS/MS.
# [6] = Brain distribution of Compound 100 24 hours after a single 100 mg/kg PO dose; assay type: in vivo, male Sprague-Dawley rats
# Experimental: The distribution profile of Compound 100 was investigated in male Sprague-Dawley rats. […] At 24 hours after dosing, tissues from perfused brain and plasma were collected and analyzed by LC-MS.
# [7] = dose escalation 150 mg/kg to 750 mg/kg
SMILES,gross signs of nephrotoxicity (rats; [7]),BUN (rats),creatinine (rats),creatine level (Male Sprague-Dawley Rats [1]),gamma glutamyl transferase (GGT) level (Male Sprague-Dawley Rats [1]),urea nitrogen level (Male Sprague-Dawley Rats [1]),blood urea nitrogen (BUN) level (Male Sprague-Dawley Rats [2]; 8 hr and 24 hr serum samples),creatinine level (Male Sprague-Dawley Rats [2]; 24 hr serum samples),gamma glutamyl transferase (GGT) level (Male Sprague-Dawley Rats [2]; 24 hr serum samples),activity at the NMDA receptor (peak current and steady state current) [3],"exposure as measured by AUC and Cmax, compared with non-deuterated D-serine (rats; [7])",Cmax and AUCinf compared with non-deuterated D-serine [4],course of concentration in hippocampus ([4]; at 24 hr),course of concentrations in plasma and cortex ([4]; within 24 hr),Tmax compared with non-deuterated D-serine [5],concentration in the cortex compared with plasma or other brain locations [6]
"N[C@H](CO)C(=O)O [Non-deuterated D-Serine, D-serine]",only observed in rats receiving non-deuterated D-serine,increasingly elevated levels,increasingly elevated levels,Elevated,Elevated,Elevated,Elevated,Elevated,Elevated,indistinguishable,,,,,,
"[2H][C@@](N)(CO)C(=O)O [Compound 100, (2R)-2-amino-2-deutero-3-hydroxy-propanoic acid]",not Compound 100,minimal changes,minimal changes,,,,,,,indistinguishable,greater,similar,remained steady,decreased,similar,greater
